In patent publication US12187701B2, “Taire family kinase inhibitors and uses thereof” (Dana-Farber Cancer Institute, Inc., priority 2018, dated 2025):
Where two headings read alike, the source gives them in different places.

Columns and labels:
[1] = system: HCT116 cells; experiment: Antiproliferation assay, Cell Titer Glo, 72 hours; assay type: cell-based
Procedure: HCT116 cells were plated in 384-well plates at 750 cells/well in 50 ul fresh media (McCoy's 5A+10% FBS+1% Penn/Strep) and treated with 0.1 μl candidate compounds in four-fold dilution series using the Janus pinner. Cells were incubated with compounds for 72 hours in 37° C. 5% CO2. Anti-proliferative effects of these compounds were assessed 72 hours after compound addition using Cell Titer Glo (Promega cat #G7571) as described in product manual by luminescence measurements using an Envision platereader. All proliferation assays were performed in biological quadruplicate. IC50 values were determined using a non-linear regression curve fit in GraphPad Prism 6.

[2] = biological target: Cdk14/CycY (Homo sapiens (Human), UniProt O94921); experiment: Lanthascreen Eu kinase binding assay for Cdk14/CycY with 30 minute pre-incubation; settings: 30 minute pre-incubation of kinase with compound; read-out: IC50 CDK14 binding by Lanthascreen
Procedure: Lanthascreen Eu kinase binding assays were conducted for Cdk14/CycY largely as performed in the commercial assay service by Life Technologies, but included a 30 minute pre-incubation step of the kinase with candidate compounds to facilitate covalent bond formation.

Cdk14/CycY, sequence (O94921 whole entry): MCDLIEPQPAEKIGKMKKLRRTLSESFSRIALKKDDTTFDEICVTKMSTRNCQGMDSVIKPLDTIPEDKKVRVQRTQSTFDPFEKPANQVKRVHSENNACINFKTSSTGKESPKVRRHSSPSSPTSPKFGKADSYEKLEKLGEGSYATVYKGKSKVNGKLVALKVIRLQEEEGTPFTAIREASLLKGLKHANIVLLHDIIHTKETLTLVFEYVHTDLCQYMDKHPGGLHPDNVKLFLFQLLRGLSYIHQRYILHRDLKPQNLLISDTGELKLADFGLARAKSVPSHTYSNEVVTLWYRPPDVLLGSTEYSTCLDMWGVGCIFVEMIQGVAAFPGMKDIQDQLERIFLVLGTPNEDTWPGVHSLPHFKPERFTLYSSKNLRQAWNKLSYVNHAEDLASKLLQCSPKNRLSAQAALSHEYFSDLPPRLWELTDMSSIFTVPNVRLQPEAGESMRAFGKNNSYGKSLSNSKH
Cdk14/CycY, sequence (Q8ND76 whole entry partner): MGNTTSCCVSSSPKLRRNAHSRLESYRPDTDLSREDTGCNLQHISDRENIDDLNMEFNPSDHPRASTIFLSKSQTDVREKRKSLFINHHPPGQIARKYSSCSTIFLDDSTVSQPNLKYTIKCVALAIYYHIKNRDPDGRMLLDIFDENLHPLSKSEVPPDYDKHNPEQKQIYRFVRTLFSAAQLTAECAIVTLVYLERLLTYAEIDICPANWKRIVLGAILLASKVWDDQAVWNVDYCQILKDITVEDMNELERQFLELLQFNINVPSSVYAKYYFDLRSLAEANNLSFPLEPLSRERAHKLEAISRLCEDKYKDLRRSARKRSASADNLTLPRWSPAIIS

IC50 [1] [nM] | IC50 [2] [nM] | IC50 ([1]; Homo sapiens, HCT-116, 72 h) [nM] | Compound
826 | 1100 |  | C=CC(=O)Nc1cccc(N2CCC(NC(=O)c3n[nH]cc3NC(=O)c3c(Cl)cccc3Cl)C2)c1 (stereo in doubt) [FMF-05-086-1, (S)—N-(1-(3-acrylamidophenyl)pyrrolidin-3-yl)-4-(2,6-dichlorobenzamido)-1H-pyrazole-3-carboxamide]
 | 401 | 341 | C=CC(=O)N1CCC(NC(=O)c2n[nH]cc2NC(=O)c2c(Cl)cccc2Cl)CC1 [FMF-03-177-1, N-(1-acryloylpiperidin-4-yl)-4-(2,6-dichlorobenzamido)-1H-pyrazole-3-carboxamide]
 | 208 | 1060 | CN(C)C/C=C/C(=O)N1CCC(NC(=O)c2n[nH]cc2NC(=O)c2c(Cl)cccc2Cl)CC1 [FMF-03-177-2, (E)-4-(2,6-dichlorobenzamido)-N-(1-(4-(dimethylamino)but-2-enoyl)piperidin-4-yl)-1H-pyrazole-3-carboxamide]
 | > 1000 | 17 | C=CC(=O)Nc1ccc(NC(=O)c2n[nH]cc2NC(=O)c2c(Cl)cccc2Cl)cc1 [FMF-03-182-1, N-(4-acrylamidophenyl)-4-(2,6-dichlorobenzamido)-1H-pyrazole-3-carboxamide]
 | 82 | 395 | CN(C)C/C=C/C(=O)Nc1ccc(NC(=O)c2n[nH]cc2NC(=O)c2c(Cl)cccc2Cl)cc1 [FMF-03-182-2, (E)-4-(2,6-dichlorobenzamido)-N-(4-(4-(dimethylamino)but-2-enamido)phenyl)-1H-pyrazole-3-carboxamide]
 | 569 | 39 | C=CC(=O)N1CCC[C@@H](NC(=O)c2n[nH]cc2NC(=O)c2c(Cl)cccc2Cl)C1 [FMF-03-183-1, (R)—N-(1-acryloylpiperidin-3-yl)-4-(2,6-dichlorobenzamido)-1H-pyrazole-3-carboxamide]
 | 148 | 157 | CN(C)C/C=C/C(=O)N1CCC[C@@H](NC(=O)c2n[nH]cc2NC(=O)c2c(Cl)cccc2Cl)C1 [FMF-03-183-2, (R,E)-4-(2,6-dichlorobenzamido)-N-(1-(4-(dimethylamino)but-2-enoyl)piperidin-3-yl)-1H-pyrazole-3-carboxamide]
 | 479 | 737 | C=CC(=O)N1CCC[C@H](NC(=O)c2n[nH]cc2NC(=O)c2c(Cl)cccc2Cl)C1 [FMF-03-184-1, (S)—N-(1-acryloylpiperidin-3-yl)-4-(2,6-dichlorobenzamido)-1H-pyrazole-3-carboxamide]
 | 976 | 1340 | CN(C)C/C=C/C(=O)N1CCC[C@H](NC(=O)c2n[nH]cc2NC(=O)c2c(Cl)cccc2Cl)C1 [FMF-03-184-2, (S,E)-4-(2,6-dichlorobenzamido)-N-(1-(4-(dimethylamino)but-2-enoyl)piperidin-3-yl)-1H-pyrazole-3-carboxamide]
 | 126 | 42 | C=CC(=O)Nc1ccc(C(=O)N2CCC(NC(=O)c3n[nH]cc3NC(=O)c3c(Cl)cccc3Cl)CC2)cc1 [FMF-03-186-1, N-(1-(4-acrylamidobenzoyl)piperidin-4-yl)-4-(2,6-dichlorobenzamido)-1H-pyrazole-3-carboxamide]
 | 82 | 71 | CN(C)C/C=C/C(=O)Nc1ccc(C(=O)N2CCC(NC(=O)c3n[nH]cc3NC(=O)c3c(Cl)cccc3Cl)CC2)cc1 [FMF-03-187-1, (E)-4-(2,6-dichlorobenzamido)-N-(1-(4-(4-(dimethylamino)but-2-enamido)benzoyl)piperidin-4-yl)-1H-pyrazole-3-carboxamide]
 | > 1000 | 169 | C=CC(=O)Nc1cccc(NC(=O)c2n[nH]cc2NC(=O)c2c(Cl)cccc2Cl)c1 [FMF-03-188-1, N-(3-acrylamidophenyl)-4-(2,6-dichlorobenzamido)-1H-pyrazole-3-carboxamide]
 | 88 | 723 | CN(C)C/C=C/C(=O)Nc1cccc(NC(=O)c2n[nH]cc2NC(=O)c2c(Cl)cccc2Cl)c1 [FMF-03-188-2, (E)-4-(2,6-dichlorobenzamido)-N-(3-(4-(dimethylamino)but-2-enamido)phenyl)-1H-pyrazole-3-carboxamide]
 | 77 | 485 | CN(C)C/C=C/C(=O)Nc1cccc(C(=O)N2CCC(NC(=O)c3n[nH]cc3NC(=O)c3c(Cl)cccc3Cl)CC2)c1 [FMF-03-196-2, (E)-4-(2,6-dichlorobenzamido)-N-(1-(3-(4-(dimethylamino)but-2-enamido)benzoyl)piperidin-4-yl)-1H-pyrazole-3-carboxamide]
 | 62 | 31 | C=CC(=O)Nc1ccc(S(=O)(=O)N2CCC(NC(=O)c3n[nH]cc3NC(=O)c3c(Cl)cccc3Cl)CC2)cc1 [FMF-03-197-1, N-(1-((4-acrylamidophenyl)sulfonyl)piperidin-4-yl)-4-(2,6-dichlorobenzamido)-1H-pyrazole-3-carboxamide]
 | 10 | < 0.1 | C=CC(=O)Nc1ccc(CN2CCC(NC(=O)c3n[nH]cc3NC(=O)c3c(Cl)cccc3Cl)CC2)cc1 [FMF-03-199-1, N-(1-(4-acrylamidobenzyl)piperidin-4-yl)-4-(2,6-dichlorobenzamido)-1H-pyrazole-3-carboxamide]
 |  | 0.9 | C=CC(=O)Nc1cccc(CN2CCC(NC(=O)c3n[nH]cc3NC(=O)c3c(Cl)cccc3Cl)CC2)c1 [FMF-03-200-1, N-(1-(3-acrylamidobenzyl)piperidin-4-yl)-4-(2,6-dichlorobenzamido)-1H-pyrazole-3-carboxamide]
 |  | > 10000 | CN(C)C/C=C/C(=O)Nc1ccc(S(=O)(=O)N2CCC[C@@H](NC(=O)c3n[nH]cc3NC(=O)c3c(Cl)cccc3Cl)C2)cc1 [FMF-04-056-2, (R,E)-4-(2,6-dichlorobenzamido)-N-(1-((4-(4-(dimethylamino)but-2-enamido)phenyl)sulfonyl)piperidin-3-yl)-1H-pyrazole-3-carboxamide]
 | > 1000 |  | C=CC(=O)Nc1cccc(C(=O)Nc2ccc(NC(=O)c3n[nH]cc3NC(=O)c3c(Cl)cccc3Cl)c(C)c2)c1 [FMF-04-085-1, N-(4-(3-acrylamidobenzamido)-2-methylphenyl)-4-(2,6-dichlorobenzamido)-1H-pyrazole-3-carboxamide]
 |  | 115 | C=CC(=O)Nc1cccc(S(=O)(=O)N2CCC(NC(=O)c3n[nH]cc3NC(=O)c3c(Cl)cccc3OC)CC2)c1 [FMF-04-107-1, N-(1-((3-acrylamidophenyl)sulfonyl)piperidin-4-yl)-4-(2-chloro-6-methoxybenzamido)-1H-pyrazole-3-carboxamide]
 | 8 |  | CN(C/C=C/C(=O)Nc1cccc(S(=O)(=O)N2CCC(NC(=O)c3n[nH]cc3NC(=O)c3c(Cl)cccc3Cl)CC2)c1)CCC(=O)NCCOCCOCCOCCNC(=O)CCCC[C@@H]1SC[C@@H]2NC(=O)N[C@@H]21 [FMF-04-153-1, 4-(2,6-dichlorobenzamido)-N-(1-((3-((E)-5-methyl-8,22-dioxo-26-((3aS,4S,6aR)-2-oxohexahydro-1H-thieno[3,4-d]imidazol-4-yl)-12,15,18-trioxa-5,9,21-triazahexacos-2-enamido)phenyl)sulfonyl)piperidin-4-yl)-1H-pyrazole-3-carboxamide]
 |  | 156 | CN(C)C/C=C/C(=O)Nc1cccc(CN2CCC(NC(=O)c3n[nH]cc3NC(=O)c3c(Cl)cc(Cl)cc3Cl)CC2)c1 [FMF-04-158-2, (E)-N-(1-(3-(4-(dimethylamino)but-2-enamido)benzyl)piperidin-4-yl)-4-(2,4,6-trichlorobenzamido)-1H-pyrazole-3-carboxamide]
 |  | 9000 | C=CC(=O)Nc1cccc(S(=O)(=O)N2CCC(NC(=O)c3nn(C)cc3NC(=O)c3c(Cl)cccc3Cl)CC2)c1 [FMF-04-180-1, N-(1-((3-acrylamidophenyl)sulfonyl)piperidin-4-yl)-4-(2,6-dichlorobenzamido)-1-methyl-1H-pyrazole-3-carboxamide]
 |  | > 10000 | CN(C)C/C=C/C(=O)Nc1cccc(S(=O)(=O)N2CCC(NC(=O)c3nn(C)cc3NC(=O)c3c(Cl)cccc3Cl)CC2)c1 [FMF-04-180-2, (E)-4-(2,6-dichlorobenzamido)-N-(1-((3-(4-(dimethylamino)but-2-enamido)phenyl)sulfonyl)piperidin-4-yl)-1-methyl-1H-pyrazole-3-carboxamide]
 | 46 |  | COc1cccc(Cl)c1C(=O)Nc1c[nH]nc1C(=O)NC1CCN(S(=O)(=O)c2cccc(NC(=O)/C=C/CN(C)CCC(=O)NCCOCCOCCOCCNC(=O)CCCCC[C@H]3NC(=O)N[C@H]3C)c2)CC1 [FMF-05-035-1, 4-(2-chloro-6-methoxybenzamido)-N-(1-((3-((E)-5-methyl-27-((4R,5S)—5-methyl-2-oxoimidazolidin-4-yl)-8,22-dioxo-12,15,18-trioxa-5,9,21-triazaheptacos-2-enamido)phenyl)sulfonyl)piperidin-4-yl)-1H-pyrazole-3-carboxamide]
 |  | > 10000 | CN(C)C/C=C/C(=O)Nc1cccc(CNC(=O)c2n[nH]cc2NC(=O)c2c(Cl)cccc2Cl)c1 [FMF-05-067-2, (E)-4-(2,6-dichlorobenzamido)-N-(3-(4-(dimethylamino)but-2-enamido)benzyl)-1H-pyrazole-3-carboxamide]
 |  | 93 | C=CC(=O)Nc1cccc(N2CCC(NC(=O)c3n[nH]cc3NC(=O)c3c(Cl)cccc3Cl)CC2)c1 [FMF-05-085-1, N-(1-(3-acrylamidophenyl)piperidin-4-yl)-4-(2,6-dichlorobenzamido)-1H-pyrazole-3-carboxamide]

Compound | IC50 [1] [nM] | IC50 [2] [nM] | IC50 ([1]; Homo sapiens, HCT-116, 72 h) [nM]
CN(/C=C/C(=O)Nc1cccc(CN2CCC(NC(=O)c3n[nH]cc3NC(=O)c3c(Cl)cccc3Cl)CC2)c1)CCCCC1C[C@@H]2NC(=O)N[C@@H]2S1 (some centres unmarked) [FMF-04-131-1] |  | 49 | 
